Data reported in patent US9745631B2, “Methods for diagnosing and treating oncogenic kras-associated cancer” (Dana-Farber Cancer Institute, Inc., priority 2011, dated 2017).

What was measured:
Type in all cases: cell-based, mouse
iKras p53L/+ cells [1] = assay: QPCR of metabolism genes in inhibitor-treated iKras p53L/+ cells; settings: AZD8330 50 nM, 18 hr, FIG. 41
Protocol: FIG. 41 is a bar graph showing the relative mRNA expression of the indicated genes in iKras p53L/+ cells treated with MEK inhibitor, AZD8330 (50 nM), BKM120 (150 nM), or Rapamycin (20 nM) for 18 hours. Error bars represent SD of the mean; *p<0.05; **p<0.01.
To further dissect the downstream mechanism of Kras^G12D-mediated metabolic reprogramming, specific pharmacological inhibitors were used to examine the impact of effector pathways on tumor metabolism. iKras p53L/+ cells were treated with AZD8330 (50 nM), BKM120 (150 nM), or Rapamycin (20 nM) for 18 hr. In parallel, cells were cultured in the presence or absence of doxy for 24 hr to serve as controls and relative mRNA levels of indicated metabolism genes were measured by QPCR. Some cell lysates were blotted for phospho-Akt, phospho-Erk, phospho-S6, and Myc. […] To gain further insight into the Kras^G12D-mediated transcriptional regulation that facilitates metabolic reprogramming, promoter analysis was performed on differentially expressed genes upon Kras^G12D inactivation.

iKras p53L/+ cells [2] = assay: Western blot for phospho-Akt, phospho-Erk, phospho-S6 and Myc in inhibitor-treated cells; settings: MEK inhibitor treatment (AZD8330 50 nM, 18 hr)
Protocol: FIG. 42 is a photograph of a Western blot showing expression of phospho-Akt, phospho-Erk, phospho-S6, Myc, and Actin (loading control) in iKras p53L/+ cells treated with AZD8330 (50 nM), BKM120 (150 nM), or Rapamycin (20 nM) for 18 hours. As control, cells were cultured in the presence or absence of doxycycline for 24 hours.
Tissues were fixed in 10% formalin overnight and embedded in paraffin. Immunohistochemical analysis was performed as described (see, Aguirre et al. (2003) Genes Dev 17:3112-3126). The visualization of primary antibodies was performed with horseradish peroxidase system (Vectastain ABC kit, Vector Labs, Inc., Burlingame, Calif.). Images were captured using a Leica DM1400B microsystem and Leica FW4000 version 1.2.1. […]
To further dissect the downstream mechanism of Kras^G12D-mediated metabolic reprogramming, specific pharmacological inhibitors were used to examine the impact of effector pathways on tumor metabolism. iKras p53L/+ cells were treated with AZD8330 (50 nM), BKM120 (150 nM), or Rapamycin (20 nM) for 18 hr. In parallel, cells were cultured in the presence or absence of doxy for 24 hr to serve as controls and relative mRNA levels of indicated metabolism genes were measured by QPCR. […]

iKras p53L/+ cells [3] = assay: Steady-state metabolite levels by targeted LC-MS/MS in inhibitor-treated cells; settings: 18 hr
Protocol: FIG. 43 is a bar graph showing the relative steady-state levels of the indicated metabolites measured by targeted LC-MS/MS, in iKras p53L/+ cells treated with AZD8330 (50 nM), BKM120 (150 nM), or Rapamycin (20 nM) for 18 hours. As control, cells were cultured in the presence or absence of doxycycline for 24 hours. Error bars represent SD of the mean. *p<0.05; **p<0.01.
Two independent iKras p53^L/+ tumor lines and one LSL-Kras p53^L/+ line were maintained in basal media in the presence or absence of doxycycline for 24 h. Fresh media was added 2 hours before the experiment. For metabolite collection, media from technical triplicates (in 10 cm dishes at ˜70% confluence) was fully aspirated and 4 mL of 80% (v/v) methanol was added at dry ice temperatures. Cells and the metabolite-containing supernatants were collected into conical tubes. Insoluble material in lysates was centrifuged at 2,000×g for 15 min, and the resulting supernatant was evaporated using a refrigerated speed vac. […] Ten microliters were injected and analyzed using a 5500 QTRAP hybrid triple quadrupole mass spectrometer (AB/SCIEX) coupled to a Prominence UFLC HPLC system (Shimadzu) via selected reaction monitoring (SRM) of a total of 254 endogenous water soluble metabolites for steady-state analyses of samples. […] Approximately 9-12 data points were acquired per detected metabolite. […]

iKras p53L/+ cells [4] = assay: GSH and GSSG levels normalized to cell number; settings: 0.5 mM BSO for 24 hours, FIG. 33
Protocol: FIG. 33 is a bar graph quantifying the GSH and GSSG levels normalized to cell number in iKras p53L/+ cells or constitutive LSL-KrasG12D p53L/+ control cells (LSL-Kras) maintained in the presence or absence of doxycycline (Dox+/−) or treated with 0.5 mM BSO for 24 hours; statistical significance is indicated as follows: *: p<0.05.
Doxycycline (Research Product International), BSO (Sigma), Ras activation assay kit (Millipore), G6PD activity assay kit (BioVision), GSH/GSSG-Glo™ assay kit (Promega, Madison, Wis.).
To explore this possibility in the context of Kras^G12D-driven PDAC, ^14C1- or ^14C6-labeled glucose was used to measure the production of CO2 from the oxidative PPP (^14C1—CO2) relative to that generated from the glycolysis-TCA cycle route (^14C6—CO2). Consistent with data showing that Kras^G12D de-induction exerts a minimal effect on TCA cycle intermediates (FIG. 18), no obvious change in the release of ^14C6—CO2 was observed upon doxycycline withdrawal (FIG. 32). More importantly, no significant decrease in the release of ^14C1—CO2 was detected (FIG. 32), indicating Kras^G12D extinction was not associated with decreased flux through the oxidative arm of the PPP.

iKras p53L/+ PDAC cells = assay: Clonogenic assay; settings: shRNA against FASN, FIG. 49
Protocol: FIG. 38 is a bar graph quantifying the clonogenic activity, expressed as colony number, in iKras p53L/+ cells maintained under high (11 mM) or low (1 mM) glucose, determined for cells infected with shRNA against GFP, RPIA, RPE, or RPIA+RPE; statistical significance is indicated as follows: *: p<0.05; **: p<0.01.
FIG. 49 is a bar graph quantifying the colony numbers in a clonogenic assay for iKras p53L/+ PDAC cells infected with shRNA against GFP or FASN.
400 cells were seeded into each well of 6-well plate in duplicate and colonies were stained 7-10 days later with 0.2% crystal violet in 80% methanol.

FASN = assay: Relative expression of FASN after shRNA against FASN; settings: iKras p53L/+ PDAC, FIG. 48
Text: FIG. 48 is a bar graph quantifying the relative expression level of FASN in iKras p53L/+ PDAC infected with shRNA against GFP or FASN.
(§1) Lentiviral shRNA clones targeting Gfpt1, RPIA, RPE, MYC, and FASN and nontargeting control construct shGFP were obtained from the RNAi Consortium at the Dana-Farber/Broad Institute. The clone IDs and nucleic acid sequences for the shRNAs are:
As shown in Example 4, above, extinction of iKras led to decreased expression of FASN. Thus, it was next determined whether FASN plays a role in tumorigenesis in PDAC tumor model. iKras p53L/+ PDAC were treated with shRNA against FASN or GFP (control). […] Thus, FASN was determined to play a role in tumorigenic activity of iKras p53L/+ PDAC cells.

Gfpt1 = assay: Western blot for O-GlcNAc after shRNA knockdown of Gfpt1; settings: shRNA against Gfpt1, FIG. 25
Protocol: FIG. 25 is a photograph of a Western blot analysis for O-GlcNAc and Gfpt1 levels in KrasG12D p53L/+ cells infected with shRNA against GFP or Gfpt1. For control samples, MEFs were cultured in the presence or absence of glucose (Glc+, Glc−) for 24 hours. Actin was used as a loading control.
Tissues were fixed in 10% formalin overnight and embedded in paraffin. Immunohistochemical analysis was performed as described (see, Aguirre et al. (2003) Genes Dev 17:3112-3126). The visualization of primary antibodies was performed with horseradish peroxidase system (Vectastain ABC kit, Vector Labs, Inc., Burlingame, Calif.). Images were captured using a Leica DM1400B microsystem and Leica FW4000 version 1.2.1. The primary antibodies used for immunohistochemistry or Western blot were: SMA (NB600-531, Novus Biologicals®, Littleton, Colo.), BrdU (ab1293, Abcam, Cambridge, Mass.), cleaved-Caspase3 (9664, Cell Signaling, Danvers, Mass.), phosphor-Akt (4060, Cell Signaling), phospho-Erk (4376, Cell Signaling), phospho-S6 (4858, Cell Signaling), Actin (sc-1615, Santa Cruz, Santa Cruz, Calif.), Ras (05-516, Millipore, Billerica, Mass.), O-GlcNAc (ab2739, Abcam). Gfpt1 antibody was a kind gift from Immuno-Biological Laboratories Co., Gunma, Japan.
as §1
Lentiviruses were produced in 293T cells with packing mix (ViraPower Lentiviral Expression System, Invitrogen, Carlsbad, Calif.) as per manufacturer's instruction. 293T cell supernatant containing the shRNA lentivirus was collected, filtered through 0.45 μm filter, and added to target iKras cells in the presence of 8 μg/ml polybrene.
To further substantiate the essentiality of Kras^G12D-mediated control of protein glycosylation, the impact of shRNA-mediated knockdown of Gfpt1 was assessed. […]

For `Cc1cc(C(=O)NOCCO)c(Nc2ccc(I)cc2F)n(C)c1=O` [AZD8330], the “expression of glycolytic genes (Glut1, Hk1, Eno1, Ldha), HBP gene (Gfpt1) and nonoxidative PPP gene (Rpia), relative mRNA” value (iKras p53L/+ cells [1]) was “significantly decreased”, the Myc protein level (iKras p53L/+ cells [2]) was “decreased” and the “metabolite changes in the glycolysis, HBP and nonoxidative PPP pathways” value (iKras p53L/+ cells [3]; AZD8330 50 nM, FIG. 43) was “recapitulated the Kras^G12D inactivation induced metabolite changes”.
In the case of `Nc1cc(C(F)(F)F)c(-c2cc(N3CCOCC3)nc(N3CCOCC3)n2)cn1` [BKM120], the “impact on iKras-directed tumor metabolism” value (iKras p53L/+ cells [3]; BKM120 150 nM, FIGS. 41, 42 and 43) is reported as “did not exhibit a significant impact”.
`CCCCS(=N)(=O)CCC(N)C(=O)O` (stereo not shown) [BSO, buthionine sulfoximine] was tested, and the “ratio of GSH/GSSG” value (iKras p53L/+ cells [4]) was “dramatically reduced”.
“FASN shRNA1: lentiviral shRNA clone targeting FASN, GCTGGTCGTTTCTCCATTAAA (SEQ ID NO: 172)” was tested, and the colony formation (iKras p53L/+ PDAC cells) was “marked decrease” and the FASN expression (FASN) was “marked decrease”.
In the case of “shRNA4: lentiviral shRNA clone targeting FASN, CGTCTATACCACTGCTTACTA (SEQ ID NO: 175)”, the colony formation (iKras p53L/+ PDAC cells) is reported as “marked decrease” and the FASN expression (FASN) is reported as “marked decrease”.
For “shRNA #1: lentiviral shRNA clone targeting Gfpt1, CCTGAAACTTAAGACAGTTAA (SEQ ID NO: 165)”, the “overall O-linked glycosylation (O-GlcNAc)” value (Gfpt1) was “reduced”.
“shRNA #2: lentiviral shRNA clone targeting Gfpt1, CGTCTCTCTATCCACCGAATT (SEQ ID NO: 166)” was tested, and the “overall O-linked glycosylation (O-GlcNAc)” value (Gfpt1) was “failed to affect glycosylation”.
“shRNA #3: lentiviral shRNA clone targeting Gfpt1, CAGGGCATTCTCAGTGTGATT (SEQ ID NO: 167)” was tested, and the “overall O-linked glycosylation (O-GlcNAc)” value (Gfpt1) was “reduced”.
In the case of “shRNAS: lentiviral shRNA clone targeting FASN, GCTGCGGAAACTTCAGGAAAT (SEQ ID NO: 176)”, the colony formation (iKras p53L/+ PDAC cells) is reported as “to some extent”.
